Assay: amide bond formation (head-to-tail lactamisation): terminal amine + amino acid COOH, EDC.HCl 2.2 equiv, DMAP 0.2 equiv, substrate (HCl salt) and reagent solutions each added dropwise over 1 h
Details: 14-membered ring, CH2Cl2, 4.0 mM, 2 steps

CCN1CCN(CC)C(=O)[C@H](CC(C)C)NC(=O)[C@H](C)NC(=O)c2nc[nH]c2C1=O [H-Leu-[N(Et)CH2CH2N(Et)]-CO-(imidazole-4,5-diyl)-CO-Ala-OH]
ring closure, yield over several steps (from CCN(CCN(CC)C(=O)[C@@H](N)CC(C)C)C(=O)c1[nH]cnc1C(=O)N[C@@H](C)C(=O)O, 14.0 h): 11%

CCN1CCN(CC)C(=O)[C@@H](C)NC(=O)[C@H](C)NC(=O)c2nc[nH]c2C1=O [H-D-Ala-[N(Et)CH2CH2N(Et)]-CO-(imidazole-4,5-diyl)-CO-Ala-OH]
ring closure, yield over several steps (from CCN(CCN(CC)C(=O)[C@@H](C)N)C(=O)c1[nH]cnc1C(=O)N[C@@H](C)C(=O)O, 14.0 h): 10%

CC(C)C[C@@H]1NC(=O)c2nc[nH]c2C(=O)N(C)CCN(C)C(=O)[C@@H](C)NC1=O [H-D-Ala-[N(Me)CH2CH2N(Me)]-CO-(imidazole-4,5-diyl)-CO-Leu-OH]
ring closure, yield over several steps (from CC(C)C[C@H](NC(=O)c1nc[nH]c1C(=O)N(C)CCN(C)C(=O)[C@@H](C)N)C(=O)O, 14.0 h): 11%

C[C@H]1NC(=O)c2nc[nH]c2C(=O)N(C)CCN(C)C(=O)[C@@H](C)NC1=O
ring closure, yield over several steps (from C[C@@H](N)C(=O)N(C)CCN(C)C(=O)c1[nH]cnc1C(=O)N[C@H](C)C(=O)O, 14.0 h): 0%

C[C@@H]1NC(=O)c2nc[nH]c2C(=O)N(C)CCN(C)C(=O)CNC1=O [H-Gly-[N(Me)CH2CH2N(Me)]-CO-(imidazole-4,5-diyl)-CO-Ala-OH]
ring closure, yield over several steps (from C[C@H](NC(=O)c1nc[nH]c1C(=O)N(C)CCN(C)C(=O)CN)C(=O)O, 21.0 h): 7%

CCN1CCN(CC)C(=O)c2[nH]cnc2C(=O)N[C@@H](C)C(=O)NCC1=O [H-Gly-[N(Et)CH2CH2N(Et)]-CO-(imidazole-4,5-diyl)-CO-Ala-OH]
ring closure, yield over several steps (from CCN(CCN(CC)C(=O)c1[nH]cnc1C(=O)N[C@@H](C)C(=O)O)C(=O)CN, 14.0 h): 9%

CC(C)C[C@@H]1NC(=O)[C@@H](C)NC(=O)c2nc[nH]c2C(=O)N(C)CCN(C)C1=O [H-Leu-[N(Me)CH2CH2N(Me)]-CO-(imidazole-4,5-diyl)-CO-D-Ala-OH]
ring closure, yield over several steps (from CC(C)C[C@H](N)C(=O)N(C)CCN(C)C(=O)c1[nH]cnc1C(=O)N[C@H](C)C(=O)O, 14.0 h): 37%

CCN1CCN(CC)C(=O)[C@H](C)NC(=O)CNC(=O)c2nc[nH]c2C1=O [H-Ala-[N(Et)CH2CH2N(Et)]-CO-(imidazole-4,5-diyl)-CO-Gly-OH]
ring closure, yield over several steps (from CCN(CCN(CC)C(=O)[C@H](C)N)C(=O)c1[nH]cnc1C(=O)NCC(=O)O, 14.0 h): 0%

C[C@@H]1NC(=O)c2nc[nH]c2C(=O)N(C)CCN(C)C(=O)[C@@H](C)NC1=O [H-D-Ala-[N(Me)CH2CH2N(Me)]-CO-(imidazole-4,5-diyl)-CO-Ala-OH]
ring closure, yield over several steps (from C[C@H](NC(=O)c1nc[nH]c1C(=O)N(C)CCN(C)C(=O)[C@@H](C)N)C(=O)O, 14.0 h): 22%

CCN1CCN(CC)C(=O)[C@H](CC(C)C)NC(=O)[C@@H](C)NC(=O)c2nc[nH]c2C1=O [H-Leu-[N(Et)CH2CH2N(Et)]-CO-(imidazole-4,5-diyl)-CO-D-Ala-OH]
ring closure, yield over several steps (from CCN(CCN(CC)C(=O)[C@@H](N)CC(C)C)C(=O)c1[nH]cnc1C(=O)N[C@H](C)C(=O)O, 14.0 h): 0%

CCN1CCN(CC)C(=O)c2[nH]cnc2C(=O)NCC(=O)NCC1=O [H-Gly-[N(Et)CH2CH2N(Et)]-CO-(imidazole-4,5-diyl)-CO-Gly-OH]
ring closure, yield over several steps (from CCN(CCN(CC)C(=O)c1[nH]cnc1C(=O)NCC(=O)O)C(=O)CN, 14.0 h): 0%

CCN1CCN(CC)C(=O)[C@H](CC(C)C)NC(=O)CNC(=O)c2nc[nH]c2C1=O [H-Leu-[N(Et)CH2CH2N(Et)]-CO-(imidazole-4,5-diyl)-CO-Gly-OH]
ring closure, yield over several steps (from CCN(CCN(CC)C(=O)[C@@H](N)CC(C)C)C(=O)c1[nH]cnc1C(=O)NCC(=O)O, 14.0 h): 8%

CN1CCN(C)C(=O)c2[nH]cnc2C(=O)NCC(=O)NCC1=O [H-Gly-[N(Me)CH2CH2N(Me)]-CO-(imidazole-4,5-diyl)-CO-Gly-OH]
ring closure, yield over several steps (from CN(CCN(C)C(=O)c1[nH]cnc1C(=O)NCC(=O)O)C(=O)CN, 10.5 h): 7%

C[C@@H]1NC(=O)CNC(=O)c2nc[nH]c2C(=O)N(C)CCN(C)C1=O [H-Ala-[N(Me)CH2CH2N(Me)]-CO-(imidazole-4,5-diyl)-CO-Gly-OH]
ring closure, yield over several steps (from C[C@H](N)C(=O)N(C)CCN(C)C(=O)c1[nH]cnc1C(=O)NCC(=O)O, 14.0 h): 0%

CCN1CCN(CC)C(=O)[C@@H](C)NC(=O)CNC(=O)c2nc[nH]c2C1=O [H-D-Ala-[N(Et)CH2CH2N(Et)]-CO-(imidazole-4,5-diyl)-CO-Gly-OH]
ring closure, yield over several steps (from CCN(CCN(CC)C(=O)[C@@H](C)N)C(=O)c1[nH]cnc1C(=O)NCC(=O)O, 14.0 h): 3%

C[C@H]1NC(=O)c2nc[nH]c2C(=O)N(C)CCN(C)C(=O)CNC1=O [H-Gly-[N(Me)CH2CH2N(Me)]-CO-(imidazole-4,5-diyl)-CO-D-Ala-OH]
ring closure, yield over several steps (from C[C@@H](NC(=O)c1nc[nH]c1C(=O)N(C)CCN(C)C(=O)CN)C(=O)O, 18.0 h): 17%

C[C@@H]1NC(=O)c2nc[nH]c2C(=O)N(C)CCN(C)C(=O)[C@H](C)NC1=O [H-Ala-[N(Me)CH2CH2N(Me)]-CO-(imidazole-4,5-diyl)-CO-Ala-OH]
ring closure, yield over several steps (from C[C@H](N)C(=O)N(C)CCN(C)C(=O)c1[nH]cnc1C(=O)N[C@@H](C)C(=O)O, 14.0 h): 32%

CC(C)C[C@@H]1NC(=O)CNC(=O)c2nc[nH]c2C(=O)N(C)CCN(C)C1=O [H-Leu-[N(Me)CH2CH2N(Me)]-CO-(imidazole-4,5-diyl)-CO-Gly-OH]
ring closure, yield over several steps (from CC(C)C[C@H](N)C(=O)N(C)CCN(C)C(=O)c1[nH]cnc1C(=O)NCC(=O)O, 14.0 h): 0%

CCN1CCN(CC)C(=O)[C@@H](C)NC(=O)[C@@H](C)NC(=O)c2nc[nH]c2C1=O
ring closure, yield over several steps (from CCN(CCN(CC)C(=O)[C@@H](C)N)C(=O)c1[nH]cnc1C(=O)N[C@H](C)C(=O)O, 14.0 h): 9%

CC(C)C[C@@H]1NC(=O)[C@H](C)NC(=O)c2nc[nH]c2C(=O)N(C)CCN(C)C1=O [H-Leu-[N(Me)CH2CH2N(Me)]-CO-(imidazole-4,5-diyl)-CO-Ala-OH]
ring closure, yield over several steps (from CC(C)C[C@H](N)C(=O)N(C)CCN(C)C(=O)c1[nH]cnc1C(=O)N[C@@H](C)C(=O)O, 14.0 h): 14%

C[C@@H]1NC(=O)[C@@H](C)NC(=O)c2nc[nH]c2C(=O)N(C)CCN(C)C1=O [H-Ala-[N(Me)CH2CH2N(Me)]-CO-(imidazole-4,5-diyl)-CO-D-Ala-OH]
ring closure, yield over several steps (from C[C@H](N)C(=O)N(C)CCN(C)C(=O)c1[nH]cnc1C(=O)N[C@H](C)C(=O)O, 14.0 h): 0%

CCN1CCN(CC)C(=O)[C@H](C)NC(=O)[C@@H](C)NC(=O)c2nc[nH]c2C1=O [H-Ala-[N(Et)CH2CH2N(Et)]-CO-(imidazole-4,5-diyl)-CO-D-Ala-OH]
ring closure, yield over several steps (from CCN(CCN(CC)C(=O)[C@H](C)N)C(=O)c1[nH]cnc1C(=O)N[C@H](C)C(=O)O, 14.0 h): 8%

CCN1CCN(CC)C(=O)[C@H](CC(C)C)NC(=O)[C@H](CC(C)C)NC(=O)c2nc[nH]c2C1=O [H-Leu-[N(Et)CH2CH2N(Et)]-CO-(imidazole-4,5-diyl)-CO-Leu-OH]
ring closure, yield over several steps (from CCN(CCN(CC)C(=O)[C@@H](N)CC(C)C)C(=O)c1[nH]cnc1C(=O)N[C@@H](CC(C)C)C(=O)O, 14.0 h): 0%

C[C@H]1NC(=O)CNC(=O)c2nc[nH]c2C(=O)N(C)CCN(C)C1=O [H-D-Ala-[N(Me)CH2CH2N(Me)]-CO-(imidazole-4,5-diyl)-CO-Gly-OH]
ring closure, yield over several steps (from C[C@@H](N)C(=O)N(C)CCN(C)C(=O)c1[nH]cnc1C(=O)NCC(=O)O, 14.0 h): 0%

CC(C)C[C@@H]1NC(=O)c2nc[nH]c2C(=O)N(C)CCN(C)C(=O)CNC1=O [H-Gly-[N(Me)CH2CH2N(Me)]-CO-(imidazole-4,5-diyl)-CO-Leu-OH]
ring closure, yield over several steps (from CC(C)C[C@H](NC(=O)c1nc[nH]c1C(=O)N(C)CCN(C)C(=O)CN)C(=O)O, 17.5 h): 37%

CC(C)C[C@@H]1NC(=O)c2nc[nH]c2C(=O)N(C)CCN(C)C(=O)[C@H](C)NC1=O [H-Ala-[N(Me)CH2CH2N(Me)]-CO-(imidazole-4,5-diyl)-CO-Leu-OH]
ring closure, yield over several steps (from CC(C)C[C@H](NC(=O)c1nc[nH]c1C(=O)N(C)CCN(C)C(=O)[C@H](C)N)C(=O)O, 14.0 h): 12%

CCN1CCN(CC)C(=O)[C@H](C)NC(=O)[C@H](C)NC(=O)c2nc[nH]c2C1=O [H-Ala-[N(Et)CH2CH2N(Et)]-CO-(imidazole-4,5-diyl)-CO-Ala-OH]
ring closure, yield over several steps (from CCN(CCN(CC)C(=O)[C@H](C)N)C(=O)c1[nH]cnc1C(=O)N[C@@H](C)C(=O)O, 14.0 h): 7%

CCN1CCN(CC)C(=O)c2[nH]cnc2C(=O)N[C@H](C)C(=O)NCC1=O [H-Gly-[N(Et)CH2CH2N(Et)]-CO-(imidazole-4,5-diyl)-CO-D-Ala-OH]
ring closure, yield over several steps (from CCN(CCN(CC)C(=O)c1[nH]cnc1C(=O)N[C@H](C)C(=O)O)C(=O)CN, 14.0 h): 8%

— article PMC6268944
